Tested on: PepCYP mRNA
Experiment: RNA gel blot analysis of PepCYP expression in pepper fruits drop-applied with ABA or JA
Set-up: species or system pepper (Capsicum annuum)
Procedure: Both ripe-red and unripe-mature-green fruits of pepper cv Nokkwang were grown and harvested under greenhouse conditions. For wound treatments, five healthy ripe and unripe fruits were deeply scratched with a knife and incubated at 100% relative humidity at 27° C. in the dark. Ten μl of ABA at 4 and 40 μM, or JA at 4 and 40 μM were drop-applied to both ripe and unripe sets of five fruits, respectively. After incubation under the conditions described above, the fruits were excised to 1 cm^2 at the drop-application site for the fungus, ABA or JA, and at the wounding site. The samples were then frozen in liquid nitrogen. Leaf, root, and stem samples were harvested from 3-week-old plants and handled as described above for fungal inoculation and wounding.
Total RNA (10 μg/lane) from each plant tissue used in this study was separated on 1.2% denaturing agarose gels in the presence of formaldehyde. RNA gel-blotting, hybridization and washing were conducted as described by the manufacturer of the positively charged nylon membrane employed (Hybond N^+; Amersham Pharmacia Biotech). Radiolabeled probes were prepared with [α-^32P]dCTP (Amersham Pharmacia Biotech) using a random primer-labeling kit (Boehringer, Mannheim, Germany).
Jasmonic acid (JA) is a plant hormone with roles in mechanical wounding responses (Creelman et al. 1992; Creelman and Mullet 1997). ABA is hypothesized to be a key component in wound-signaling cascade leading to the activation of a defense gene (Pena-Cortés et al. 1996; Wasternack and Partheir 1997). Thus, we further examined whether the wound-inducible PepCYP expression is inducible by ABA or JA treatments. RNA gel blot analysis was performed with total RNAs prepared from the application sites of both ripe and unripe fruits drop-applied with ABA or JA for 24 h.

Structure (SMILES)	accumulation of PepCYP mRNA (ripe fruit, 40 μM drop-applied, 24 h)	induction of PepCYP expression (unripe fruit, 100, 400 and 1000 μM (data not shown))	expression of PepCYP (both ripe and unripe fruits, 4 and 40 μM drop-applied, 24 h)
CC/C=C\C[C@H]1C(=O)CC[C@@H]1CC(=O)O [JA, Jasmonic acid]	highly accumulated	No induction	
CC1=CC(=O)CC(C)(C)[C@@]1(O)/C=C/C(C)=C\C(=O)O [ABA, abscisic acid]			did not affect
